Measurements reported in patent US10857151B1, “Treatment of female genital schistosomiasis” (Villya LLC, priority 2020, dated 2020).

Key:
[1] = tested on: blood-borne infection of schistosomiasis; test: Blood test for schistosomiasis using Schisto POC-CCA in FGS after treatment; format: in vivo, human; details: female with FGS; three doses of 20 mg/kg oral praziquantel; after two weeks
[2] = tested on: schistosomiasis worms in the vagina; test: Microscope observation of vaginal swab sample slides for schistosomiasis worms in FGS after treatment; format: in vivo, human; details: after two weeks
From the text: A single dose of Praziquantel as described in Example 1 was vaginally inserted into the subject.

Compound: O=C(C1CCCCC1)N1CC(=O)N2CCc3ccccc3C2C1 (stereo not drawn) [praziquantel]
- blood retested for schistosomiasis [1]: negative for schistosomiasis
- observation of vaginal sample from brushing with a swab on microscope slides ([2]; female with FGS, three doses of 20 mg/kg oral praziquantel): live schistosomiasis worms still in the vagina
- slides observed under the microscope for schistosomiasis worms ([2]; single dose vaginally inserted as in Example 1 (600 mg praziquantel in 2.5 g K-Y Jelly), same subject after oral treatment): negative for schistosomiasis worms
